“Also recorded” adds a separate entry of the source. Marks after values point to notes of the source that are not given here.
How the values were obtained:
Type in all cases: in vivo
[1] = test system: model of ischemia/reperfusion in the CD rat; experiment: Rat model of ischemia/reperfusion, infarct analysis (Phase B); conditions: for Infarct/AAR (%) Mean: 4 hour reperfusion; for Infarct/AAR (%) Mean / Infarct/LV (%) Mean: rat
Method: (§1) This study was conducted to evaluate the effects of the Compound #6 on cardiac function, infarct size, and Troponin I levels in a model of ischemia/reperfusion in the CD® (CR1CD® (SD)) rat. Phase A was conducted for toxicity evaluation purposes. In Phase B (the efficacy phase), two treatment groups of eight male rats were administered Compound #6 at dose levels of 0.2 and 2 mg/kg via intravenous infusion following myocardial infarction. The 2 mg/kg dose of Compound #6 was administered intravenously via a slow infusion starting 3 to 14 minutes prior to reperfusion and continuing for 20 minutes to 20 minutes and 32 seconds, which was approximately 6 to 17 minutes after reperfusion (depending on the infusion start time). The 0.2 mg/kg dose of Compound #6 was administered intravenously via a slow infusion starting 10 minutes prior to reperfusion and continuing for 30 minutes to 30 minutes and 30 seconds, which was approximately 20 minutes after reperfusion.
The animals were placed on mechanical ventilation and […]. Once anesthetized, the animal was placed in a right lateral recumbency, an arterial catheter or polyethylene tube was placed in the carotid artery for monitoring blood pressure and a thoracotomy was performed. The left coronary artery (LCA) was identified. A ligature was placed around the LCA and the vessel was ligated. The LCA was maintained occluded for 29 to 43 minutes. Occlusion of the vessel was verified via blanching of the heart and via ST interval changes. At the end of the occlusion period, the knot was loosened leaving the ligature in place, and the vessel was allowed to reperfuse for 3 hours 27 minutes to 4 hours 51 minutes. Following infarct, a chest tube was placed, the deep and superficial muscle layers were sutured at the surgical incision, and the skin was closed with staples. The chest tube was removed after spontaneous respiration was established. In Phase A, the animals were recovered from anesthesia and evaluated for 4 days. In Phase B, animals were maintained under anesthesia for 3 hours 27 minutes to 4 hours 51 minutes prior to being submitted to necropsy.
In Phase B, Compound #6 was administered once on Day 0 via intravenous infusion at dose levels of 0.2 and 2 mg/kg. The doses were administered at a dose volume of 1 mL/kg (0.05 [2 mg/kg] or 0.033 [0.2 mg/kg] mL/kg/minute). Two control groups received the vehicle (saline) or the vehicle for Compound #6 (10% (w/v) 2-hydroxypropyl-beta-cyclodextrin and 100 mM sodium chloride in deionized water) in the same manner as the 2 mg/kg treated group. The vehicles and 2 mg/kg Compound #6 were administered intravenously via a slow infusion starting 3 to 14 minutes prior to reperfusion and continuing for 20 minutes to 20 minutes and 32 seconds, which was approximately 6 to 17 minutes after reperfusion (depending on the infusion start time). The 0.2 mg/kg Compound #6 was administered intravenously via a slow infusion starting 10 minutes prior to reperfusion and continuing for 30 minutes to 30 minutes and 30 seconds, which was approximately 20 minutes after reperfusion. The positive control article, Erythropoietin, was administered at 5000 IU/kg via a bolus intravenous injection. The positive control article dose was administered at a dose volume of 2.5 mL/kg. The positive control was administered via a 3 to 60 second injection at 5 minutes prior to reperfusion.
After LAD reperfusion (4 hours), the animals were euthanized by an intraperitoneal injection of sodium pentobarbital followed by exsanguination via severing the abdominal vena cava. The heart was flushed with heparinized Lactated Ringers Solution (LRS) until clear of blood and the LAD was tied off using the same ligature used to occlude the vessel and Evan Blue dye was injected. The heart was weighed and breadloafed (4-5 sections per animal). […]

[2] = test system: model of ischemia/reperfusion in the CD rat; experiment: Mortality and adverse changes in Phase B of rat ischemia/reperfusion study
Method: as §1
The animals were placed on mechanical ventilation and not intubated. Once anesthetized, the animal was placed in a right lateral recumbency, an arterial catheter or polyethylene tube was placed in the carotid artery for monitoring blood pressure and a thoracotomy was performed. The left coronary artery (LCA) was identified. […] In Phase A, the animals were recovered from anesthesia and evaluated for 4 days. […]

[3] = test system: model of ischemia/reperfusion in the CD rat; experiment: Rat model of ischemia/reperfusion, cardiac Troponin I concentration (Phase B); conditions: 0.2 and 2.0 mg/kg; prior to termination; not statistically different
Method: as §1
The animals in Phase B were monitored for selected cardiovascular endpoints from at least 15 minutes prior to acute myocardial infarction until at approximately 1 hour post reperfusion. […]
In Phase B, cardiac troponin I evaluations were conducted at 3 to 54 minutes prior to coronary artery occlusion and prior to termination on all animals. […] The samples were stored frozen at −50 to −90° C. until analyzed.

Cc1ccc(CN(CCN(Cc2ccc(C)cn2)Cc2ccc(C)cn2)Cc2ccc(C)cn2)nc1 [Compound #6]
Infarct/AAR (%) Mean ([1]; 0.2 mg/kg intravenous infusion): 22.2±5.24%
Infarct/AAR (%) Mean ([1]; 0.2 mg/kg intravenous infusion, listed as Comp #6): 22^b %
Infarct/LV (%) Mean ([1]; 0.2 mg/kg intravenous infusion): 7%
Infarct/AAR (%) Mean ([1]; 2 mg/kg intravenous infusion): 19.1±7.38%
Infarct/AAR (%) Mean ([1]; 2 mg/kg intravenous infusion, listed as Comp #6): 19^b %
Infarct/LV (%) Mean ([1]; 2 mg/kg intravenous infusion): 7%
infarct size following ischemia-reperfusion injury, in words ([1]; either 0.2 or 2.0 mg/kg IV as an infusion, 30 minute ischemia, vs saline and vehicle controls): significant decrease in infarct size
differences in mortality rates between saline animals and treated animals (Phase B) ([2]; 0.2 and 2 mg/kg vs saline): suggest a cardioprotective effect
animals that died between 3 and 4 hours post reperfusion (Phase B) ([2]; Group 5, 0.2 mg/kg): two
Troponin I (TnI) levels versus saline and vehicle control animals [3]: substantially lower TnI levels than both saline and vehicle control animals; also recorded: substantially lower, but not significantly lower

Reference: patent publication US20140228407A1, “TETRA-PYRIDINE COMPOUNDS AND COMPOSITION FOR PROTECTING CELLS, TISSUES AND ORGANS AGAINST ISCHEMIA-REPERFUSION INJURY” (YISSUM RESEARCH DEVELOPMENT COMPANY OF THE HEBREW …, priority 2011, published 2014)
